Results: ChEMBL document CHEMBL1201862, “PubChem BioAssay data set” (2004)
Activity calls are given as the source filed them.

Assays:
[1] = biological target: T1, Ubiquitin-conjugating enzyme E2 N (Homo sapiens, UniProt P61088); format: functional;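 note: Dose-response confirmation in a TR-FRET assay detecting UBC13-driven polyubiquitin chain formation, inhibition measured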
T1 sequence (P61088 whole entry): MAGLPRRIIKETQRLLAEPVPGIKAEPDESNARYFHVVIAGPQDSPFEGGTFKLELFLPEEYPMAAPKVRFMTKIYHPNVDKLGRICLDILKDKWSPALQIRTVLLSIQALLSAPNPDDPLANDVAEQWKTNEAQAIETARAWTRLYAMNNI

[2] = biological target: DNA repair protein RAD52 homolog (Homo sapiens, UniProt P43351); format: functional, biochemical
[3] = biological target: Major prion protein (Homo sapiens, UniProt P04156); format: functional, cell-based
[4] = cells
[5] = biological target: T2, DNA repair and recombination protein RAD54-like (Homo sapiens, UniProt Q92698); assay: RAD54 Holliday junction migration blockers – biochemical, fluorescence, cherry-picked samples, dose series, confirmation (AID 651657); format: functional
T2 sequence (Q92698 whole entry): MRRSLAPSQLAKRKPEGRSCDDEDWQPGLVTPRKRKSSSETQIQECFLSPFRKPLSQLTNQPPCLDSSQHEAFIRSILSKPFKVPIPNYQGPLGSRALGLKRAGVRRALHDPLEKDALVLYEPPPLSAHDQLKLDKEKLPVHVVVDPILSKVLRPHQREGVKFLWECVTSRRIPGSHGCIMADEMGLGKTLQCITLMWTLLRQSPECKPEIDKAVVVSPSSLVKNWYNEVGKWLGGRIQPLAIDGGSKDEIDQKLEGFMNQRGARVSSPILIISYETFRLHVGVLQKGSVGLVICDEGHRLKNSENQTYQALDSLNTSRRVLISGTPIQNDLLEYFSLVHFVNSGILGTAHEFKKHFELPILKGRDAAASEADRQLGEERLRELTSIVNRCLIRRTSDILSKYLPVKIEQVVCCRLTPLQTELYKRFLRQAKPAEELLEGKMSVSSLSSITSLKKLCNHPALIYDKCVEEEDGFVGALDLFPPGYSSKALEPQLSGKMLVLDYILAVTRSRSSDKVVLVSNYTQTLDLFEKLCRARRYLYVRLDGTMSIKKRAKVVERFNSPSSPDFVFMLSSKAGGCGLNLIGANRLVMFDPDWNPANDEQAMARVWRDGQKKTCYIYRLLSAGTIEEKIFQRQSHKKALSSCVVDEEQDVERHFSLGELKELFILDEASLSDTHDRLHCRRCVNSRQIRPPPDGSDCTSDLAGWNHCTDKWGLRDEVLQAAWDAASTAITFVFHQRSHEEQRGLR

[6] = biological target: Paired box protein Pax-8 (Homo sapiens, UniProt Q06710); assay: PAX8 transcriptional activity inhibition in RMG-I – RMG-I cells, luciferase, cherry-pick, dose response (AID 687027); format: functional, cell-based;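 note: luciferase reporter driven by Pax8 target thyroperoxidase promoter measured by SteadyGlo luminescence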
[7] = general cell-killing toxicity readout – plate reader, dry powder samples, cytotoxicity control for PAX8 inhibitor project, dose response (AID 743021); format: functional, cell-based
[8] = OVCAR8 cell viability loss – plate reader, dry powder samples, PAX8 project, dose response (AID 743197); format: functional, cell-based; conditions: OVCAR-8
[9] = biological target: Potassium channel subfamily K member 3 (Homo sapiens, UniProt O14649); assay: inhibition of human KCNK3 channel flux – CHO cells, FluxOR thallium flux, SAR follow-up (AID 652212); format: functional
[10] = viability loss in HepG2 hepatoma cells – cell-based, cherry-picks, set 5, cytotoxicity control, dose response (AID 1053118); format: functional
[11] = biological target: Albumin (Bos taurus, UniProt P02769); assay: Counterscreen for inhibitors of T-cell receptor (TCR)-CD3 interaction: Fluorescence-based biochemical high throughput dose response assay to identify inhibitors of T-cell receptor (TCR)-CD3 interaction using a TAMRA-labeled BSA probe.; format: functional
[12] = non-specific 3'UTR reporter inhibition in Clone20-Shn3RL – cell-based, Renilla luciferase, cherry-picked, counter-screen for Shn3 inhibitor project, dose response (AID 624133); format: functional
[13] = reduction of Shn3 3'UTR-driven luciferase in osteoblasts – cell-based, Clone20 osteoblasts, firefly luciferase, cherry-picked, dose response (AID 624132); format: functional;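 note: firefly luciferase luminescence from reporter carrying the Shn3 3'UTR in osteoblasts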
[14] = tested on: INS1; assay: INS-1E survival protection against cytokine death – cell-based, luminescence, retest, dose response (AID 449756); format: functional; conditions: Rattus norvegicus;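 note: cell death triggered by IL-1 beta plus TNF-alpha plus IFN-gamma mixture; protective hits raise ATP signal compared with cytokine alone wells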
[15] = loss of viability in HepG2 cells – cell-based, CellTiter-Glo, cherry-picked, cytotoxicity control for Shn3 inhibitor project, dose response (AID 624134); format: functional
[16] = Fluorescence-based cell-based high throughput dose response assay for inhibitors of the interaction of nucleotide-binding oligomerization domain containing 2 (NOD2) and the receptor-interacting serine-threonine kinase 2 (RIPK2).; format: functional; conditions: Homo sapiens
[17] = blockers of bursicon-stimulated LGR2 cAMP reporter – cell-based, HEK293, CRE-luciferase reporter, cherry pick, set 2, dose response (AID 743343); format: functional;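 note: transfected cells were stimulated with diluted bursicon conditioned medium after compound addition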
[18] = viability loss in HEK293 cells – cell-based, plate reader, cherry-picked samples, cytotoxicity control, dose response (AID 743446); format: functional
[19] = blockade of melanocortin 4 receptor signaling – cell-based, plate reader, cherry pick, counter-screen for LGR2 antagonist project, dose response (AID 743444); format: functional;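 note: transfected HEK 293 cells stimulated with alpha-MSH peptide; potency of inhibitors of the alpha-MSH evoked signal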
[20] = toxicity toward HepG2 liver cells – cell-based, plate reader, cherry-pick, antagonist series, cytotoxicity control, dose response (AID 743416); format: functional
[21] = A549 cell cytotoxicity, dose response, cytotoxicity control, plate reader, cherry-pick, antagonist series (AID 743412); format: functional, cell-based
[22] = biological target: COUP transcription factor 2 (Homo sapiens, UniProt P24468); assay: Luminescence-based cell-based high throughput dose response assay to identify inhibitors of COUP-TFII (NR2F2).; format: functional;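 note: HEK293 cells transiently cotransfected with COUP-TFII expression vector and reporter; luciferase reporter luminescence driven by COUP-TFII from the pX2-168 reporter plasmid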

In the case of `CCC[C@@H](CN1CCC[C@H]1CN1C(N)=NC[C@H]1CC(C)C)N1C[C@@H](Cc2ccccc2)N(CCCC2CCCC2)C1=N`, the IC50 [1] is reported as > 20 µM (inactive) and the AC50 [2] is reported as 19.5 µM (active).
With `COc1ccc(-c2nc3ccc(Br)cn3c2Cc2cccc(Cl)c2)cc1OC` the IC50 [3] was 5.35 µM (active) and the IC50 [4] was > 138 µM (inactive).
For `Cc1ccc(-c2nc(NCCCN(C)C)c3ccccc3n2)cc1`, the AC50 [5] was 10.6 µM (active) and the AC50 [2] was 7.08 µM (active).
For `COc1ccccc1C#Cc1ccc2c(c1)O[C@@H](CN(C)Cc1ccncc1)[C@H](C)CN([C@@H](C)CO)S2(=O)=O`, the AC50 [6] was 2.84 µM (active), the AC50 [7] was 33.2 µM (active) and the AC50 [8] was 33 µM (active).
In the case of `CCOc1ccccc1NC(=O)c1cccc(NC(=O)c2ccc(C(F)(F)F)cc2)c1`, the IC50 [9] is reported as 0.22 µM (active).
For `CO[C@@H]1CN(C)C(=O)c2cc(NC(=O)Nc3ccc(Cl)c(Cl)c3)ccc2OC[C@H](C)NC[C@@H]1C`, the AC50 [10] was > 52 µM (inactive).
With `O=C(N/N=C/c1cc(Cl)cc([N+](=O)[O-])c1O)c1cccc(S(=O)(=O)N2CCOCC2)c1` the IC50 [11] was > 94.1 µM (inactive).
In the case of `OC(c1cc(-c2ccc(C(F)(F)F)cc2)nc(C(F)(F)F)c1)C1CCCCN1` (stereo not drawn) [ENPIROLINE], the AC50 [12] is reported as 3.85 µM (active), the AC50 [6] is reported as 17.9 µM (active) and the AC50 [13] is reported as 4.73 µM (active). The AC50 [7] was 41.7 µM (active), the AC50 [14] was 6.95 µM (active) and the AC50 [15] was 6.6 µM (active).
In the case of `CC1CC(C)(O)CC(C(O)CC2CC(=O)NC(=O)C2)C1=O` (stereo not drawn) [RESACTIN A], the AC50 [12] is reported as 6.15 µM (active), the AC50 [6] is reported as < 0.26 µM (active) and the IC50 [16] is reported as 49.7 µM (inactive). For the same molecule, the AC50 [17] was 0.441 µM (active), the AC50 [13] was 0.339 µM (active) and the AC50 [18] was 0.757 µM (active). For the same molecule, the AC50 [19] was 1.14 µM (active), the AC50 [20] was 0.945 µM (active) and the AC50 [21] was 0.424 µM (active). The IC50 [22] was 0.36 µM (active).
